Usually Tmax stands for the time at which the peak concentration occurs.

The subject of series [1] is C2C12 myotubes. The series is described as follows: Glucose concentration of C2C12 myotube cultures in M1 macrophage conditioned media. The class given is cell-based, mouse. Particulars: macrophages treated with 10 mM for 2 h, then LPS/IFNγ 16 h. The method, then:
There is considerable evidence showing that inflammation and hyperglycemia are interconnected: inflammation induces hyperglycemia and reciprocally hyperglycemia induces inflammation with the molecular bases not elucidated yet. To explore the participation of GPBP, glucose intake under normoglycemic conditions with conditioned media generated by macrophages differentiated to a proinflammatory M1 phenotype was monitored.
[…]. The glucose concentration of the myotube cultures was determined at different times with Glucocard (Arkray). The controls used were the C2C12 cultured with media conditioned with no stimulated macrophages (Cells) or with M1 conditioned media (M1). The initial glucose levels (time 0) were used as a reference (100%) in each series.

Series [2] concerns AS160. Put plainly: In vitro AS160 phosphorylation in the presence of GPBP, AMPK and AKT. The class given is biochemical. As to conditions: 5 mM, with FLAG-GPBP, AKT, AMPK. The method, then:
The reactions (25 μL) were carried out at 30° C., and stirred (350 rpm) for 15 min. Then, they were stopped with a reducing loading buffer, heated (95° C., 2 min), and analyzed using electrophoresis, electrotransfer, and autoradiography.

The subject of series [3] is IRS2−/− (KO) mice. Put plainly: Fasting glycemia and insulinemia in female IRS2−/− mice. Particulars: 4 weeks. The class given is in vivo, mouse. An excerpt:
Insulin resistance characterizes type 2 diabetes, obesity, and the metabolic syndrome. Thus, insulin sensitivity is a major therapeutic objective for these metabolic diseases. Insulin receptor substrate (IRS) proteins regulate the physiological actions of insulin upon binding to the receptor. Specific deletion of IRS2 in mice produces diabetes due to a developmental reduction of the pancreatic β-cell mass and the inability of existing β-cells to expand in response to peripheral insulin resistance. Additionally, IRS2-deficiency in mice causes hepatic insulin resistance concurrent with failed suppression of hepatic glucose production. While male IRS2−/− mice often die of diabetic complications by 12 weeks of age, females IRS2−/− mice develop a milder form of diabetes and many live up to 6 months. The observation that female IRS2−/− mice eat more than controls led to the discovery that this molecule is critical for hypothalamic regulation of food intake.
The mean glycemic values are represented per group (n=3) pre-treatment (black bars) and post-treatment (gray bars) along with their standard deviations. […] The fasting serum insulin levels taken pre-treatment (black bars) and post-treatment (gray bars) were determined using a kit (Millipore), following the manufacturer's instructions. Mean values and standard deviations are presented for each group (n=3) (FIG. 12D).
Due to peripheral resistance to insulin, the IRS2−/− mice also develop hyperinsulinemia.

Series [4] can be described thus: clinical. Particulars: both, human, in vivo, oral, 1240 mg, tmax, median [minimum-maximum], 1240 mg single administration without food.
For series [5], the system named is C57BL/6 mice. The series is described as follows: Glycemia and dietary intake in C57BL/6 mice. The class given is in vivo, mouse. As to conditions: 1 week. The source says: The mean glycemic values at the beginning and end of the experiment are represented for each group (n=3) with their standard deviations.
Series [6] concerns HeLa cells. As to conditions: 10 mM, 20 h. The method, then:
After the incubation, the cells were washed with PBS, collected and washed again, then fixed with methanol:acetone (50:50) for 16 h at −20° C., and stained with 10 μg/mL of propidium iodide, 0.01 mg/mL RNase, 0.01% sodium citrate, for 20 min at 37° C. in darkness. The stained cells were analyzed by flow cytometry using a BD FACS cell sorter and BD FACSuite™ software.

The target of series [7] is T1, GPBP (Homo sapiens, UniProt Q9Y5P4).
T1 sequence (Q9Y5P4 1-624): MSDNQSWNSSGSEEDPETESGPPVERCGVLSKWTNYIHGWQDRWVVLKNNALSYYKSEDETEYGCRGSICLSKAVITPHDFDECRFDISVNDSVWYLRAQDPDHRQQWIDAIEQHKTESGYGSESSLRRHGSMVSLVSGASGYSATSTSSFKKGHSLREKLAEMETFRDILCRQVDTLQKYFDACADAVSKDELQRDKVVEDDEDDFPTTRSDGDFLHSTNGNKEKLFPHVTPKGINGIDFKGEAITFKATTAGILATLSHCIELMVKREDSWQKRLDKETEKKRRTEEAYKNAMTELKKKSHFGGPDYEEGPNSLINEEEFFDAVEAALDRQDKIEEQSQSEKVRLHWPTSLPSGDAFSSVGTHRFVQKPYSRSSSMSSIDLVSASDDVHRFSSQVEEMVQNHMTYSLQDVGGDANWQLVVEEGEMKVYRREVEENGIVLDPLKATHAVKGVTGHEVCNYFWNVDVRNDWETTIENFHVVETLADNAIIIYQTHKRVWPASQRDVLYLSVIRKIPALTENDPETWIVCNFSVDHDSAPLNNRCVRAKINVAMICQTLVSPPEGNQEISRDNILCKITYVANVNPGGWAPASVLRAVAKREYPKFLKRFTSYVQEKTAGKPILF

For series [8], the system named is wild type controls (WT). Particulars: 100 mg/kg/day, 8 weeks, fasting. As for the experimental part: At the 8-week treatment time point, there were 8 mice in each of the WT groups, 6 mice in the KO IRS2 untreated control group, 7 mice in the KO IRS2 SLN1 treated group, and 8 mice in the KO SLN2 treated group. Blood was collected at the time of sacrifice and used to measure TG under fasting conditions. […] Statistical differences between the experimental groups shown in FIG. 21 were assessed by Student's T test. P value of <0.05 is indicated by *.

For series [9], the system named is type 2 diabetes patients.
Series [10] relates to IRS2 knockout mice. As to conditions: 100 mg/kg/day, 4 weeks. An excerpt:
Insulin receptor substrate 2 (IRS2) is a cytoplasmic signaling molecule that mediates effects of insulin, insulin-like growth factor 1, and other cytokines by acting as a molecular adaptor between diverse receptor tyrosine kinases and downstream effectors. Mice lacking IRS2 (e.g., IRS2 knockout mice) have a diabetic phenotype and increased serum leptin levels. Leptin is a hormone made by adipose cells that regulates appetite and inhibits hunger.
The levels of fasting serum leptin, at the beginning and at the end of the treatments, were determined with a kit (Sigma) following the instructions by the manufacturer.

In the case of `CN(C)C(=N)NC(=N)N` [Metformin glycinate, N,N-dimethylimidodicarbonimidic diamide glycinate], for the setting “620 mg BID vs metformin hydrochloride 1000 mg BID”, the “Tmax, comparative analysis” value is reported as “statistically significant differences”. The “bioequivalence (90% C.I. in magnitude and velocity)” value (620 mg against metformin hydrochloride 500 mg) is on record as “within the theoretical ranges of bioequivalence”. The “pharmacokinetic parameters of test vs reference (metformin hydrochloride)” value (Stage B, multiple doses) is given as “similar”. Also, in [1], the “glucose levels of myotube cultures (hyperglycemic levels)” value is “maintained values at normoglycemic levels”. Besides, the “phosphorylation of AS160” value in series [2] is “increased”. In series [3] (100 mg/kg/day with food, 10-12 weeks old), the fasting glycemia post-treatment entry is “significantly lower than those pre-treatments”. Further, in [3] (100 mg/kg/day), the fasting insulin levels entry was “lowered the fasting insulin levels”. The Tmax in [4] came to 1.5 h. For the same compound, the “glycemia, end vs beginning” value in series [5] (100 mg/kg/day mixed with solid food, n=3) is given as “significantly reduced glycemia”. In series [5] (100 mg/kg/day), the “extent of glycemia reduction compared to metformin hydrochloride” value is listed as “to a greater extent” and the “food intake compared to untreated mice” value was “food intake was greater”. In addition, the “cancer cells entering G1 phase cell cycle arrest” value in series [6] is “about 56%”. Moreover, the “high molecular weight GPBP aggregates” value in series [7] (1 mM, 24 h) was “high molecular weight aggregates formed”. In addition, the GPBP-LKB1 aggregates result in [7] (FIG. 14) is reported as “dissociates GPBP-LKB1 aggregates”. Further, the “serum triglycerides compared to untreated or SLN1-treated control mice” value in series [8] was “lower”. Further, the “A1c level after two months treatment” value in series [9] (1050.6 mg per day 30 days, then 1050.6 mg twice a day 30 days, p=0.008) is reported as 7.1±1.0%. In addition, in series [9] (DMMET01 group, baseline), the “A1c level before treatment” value is reported as 8.1±0.8%. In series [9] (after two months treatment), the “reduction of the A1c level” value is “more than 1%” and the “sensitivity to insulin (Glucose CLAMP)” value was “did not change”. Besides, the “adverse events vs placebo” value in series [9] (two months treatment) is recorded as “No statistically significant difference in adverse events”. Moreover, the “reduction of fasting serum leptin levels compared to metformin hydrochloride” value in series [10] was “greater reduction of fasting serum leptin levels”. In addition, the “fasting serum leptin levels” value in series [10] (end vs beginning of treatment) was “reduced fasting serum leptin levels”.
